This note sets out measurements from patent EP4678638A1, “NEW E3 UBIQUITIN LIGASE LIGAND, PROTEIN DEGRADATION AGENT AND USE THEREOF” (priority 2023, dated 2024).

Like-named read-outs stand apart in the source and are kept apart here.

The subject of one assay is MM.1R. Put plainly: CCK-8 proliferation, MM.1R. The class given is cell-based. The conditions noted are these: CCK-8, 72 hours, read-out: Inhibitory activity (IC50) on tumor cell proliferation, MM.1R. As to the method:
(§1) The tumor cells used herein were cultured in a cell culture medium listed in table A1 at 37°C in an incubator with 5% CO2. Prior to experimentation, all cell lines used were correctly identified by STR profiling, and tested negative for mycoplasma contamination using a mycoplasma detection kit through routine screenings. Table A1. Tumor cells and cell culture medium used in the present disclosure
(§2) IC50 values of the compounds of the present disclosure (including the compounds in Table 1, and compounds of examples) were measured using the Meilun Cell Counting Kit-8 kit from Dalian Meilun Biotech Co., Ltd. Assay details are as follows: tumor cells were seeded in a 96-well plate at a density listed in Table A2. After 24h, 100 µL of the inoculated cells were treated with 0.5µL of the compounds of the present disclosure (including the compounds in Tables 1 and 2, and compounds of examples) at 10 different successively decreasing concentrations (starting at the highest concentration of 10µM; 5-fold serial dilutions). After the cells were treated with the compounds of the present disclosure for a period of time, the cell viability detection reagent was added to the culture medium for cell viability assessment according to the instructions provided with the CCK-8 kit. […] The growth inhibition of the compounds of the present disclosure on cells was plotted by Prism Graphpad software, and the IC50 values of the compounds of the present disclosure were calculated therefrom. […] Seeding protocol and treatment time for tumor cells

Another assay concerns Kasumi-1. Nature of the assay: CCK-8 proliferation, Kasumi-1. It is filed as cell-based, Human. Particulars: Homo sapiens, Kasumi 1, 72 hours, read-out: Inhibitory activity (IC50) on tumor cell proliferation, Kasumi-1. On the procedure: as §1, §2
Another assay relates to CCRF-CEM. Nature of the assay: CCK-8 proliferation, CCRF-CEM. Particulars: Homo sapiens, CCRF-CEM; CCK-8; 96 hours; read-out: Inhibitory activity (IC50) on tumor cell proliferation, CCRF-CEM. The class given is cell-based, Human. The procedure, abridged: (§3)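 CCK-8 viability readout; IC50 from growth-inhibition curve fitting. Cells plated, dosed 24h later with a 10-point series, top 10µM, 5-fold steps. Culture at 37°C, 5% CO2.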

The next assay deals with MM.1S. Put plainly: CCK-8 proliferation, MM.1S. It is filed as cell-based. Particulars: Homo sapiens, MM1.S; CCK-8; 72 hours; read-out: Inhibitory activity (IC50) on tumor cell proliferation, MM1S. In short, it runs like this:
as §3

Another assay deals with T1, CDK6 (Homo sapiens, UniProt Q00534).
T1 construct: evaluate the effects of the compounds of the present disclosure on the expression of target proteins in cells; endogenous in cells; host or cells: MDA-MB-231
T1 sequence (Q00534 whole entry): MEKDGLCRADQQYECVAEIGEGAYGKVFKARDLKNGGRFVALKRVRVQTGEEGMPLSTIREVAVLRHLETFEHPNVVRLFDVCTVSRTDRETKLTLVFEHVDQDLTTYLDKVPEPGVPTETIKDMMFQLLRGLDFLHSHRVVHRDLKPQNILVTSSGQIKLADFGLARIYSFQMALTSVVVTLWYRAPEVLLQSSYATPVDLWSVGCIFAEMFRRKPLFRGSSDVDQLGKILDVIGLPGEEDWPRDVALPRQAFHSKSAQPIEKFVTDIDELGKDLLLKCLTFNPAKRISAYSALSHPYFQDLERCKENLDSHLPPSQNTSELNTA
Nature of the assay: Western blot degradation of CDK6 (MDA-MB-231 Cell). It is filed as cell-based. Particulars: Table D3. In short, it runs like this:
(§4)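 Degradation is assessed by immunoblotting lysates of treated cells. Target bands are quantified by grayscale and normalised to an internal control, so degradation rate equals 100% minus % remaining.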

For a further assay, the target named is T2, CDK4 (Homo sapiens, UniProt P11802).
T2 construct: evaluate the effects of the compounds of the present disclosure on the expression of target proteins in cells; endogenous in cells; host or cells: MDA-MB-231
T2 sequence (P11802 whole entry): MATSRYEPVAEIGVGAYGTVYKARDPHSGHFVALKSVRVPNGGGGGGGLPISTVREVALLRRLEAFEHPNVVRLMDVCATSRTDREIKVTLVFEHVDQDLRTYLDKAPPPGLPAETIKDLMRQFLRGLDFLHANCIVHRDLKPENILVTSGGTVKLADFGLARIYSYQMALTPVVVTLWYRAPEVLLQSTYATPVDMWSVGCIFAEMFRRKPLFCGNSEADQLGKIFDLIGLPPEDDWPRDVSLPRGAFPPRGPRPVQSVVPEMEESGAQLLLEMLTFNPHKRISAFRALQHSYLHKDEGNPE
Put plainly: Western blot degradation of CDK4 (MDA-MB-231 Cell). It is filed as cell-based. The conditions noted are these: Table D3. In short, it runs like this: as §4
Background: Immunoblotting shows a protein as a band on a membrane.

For assay [1], the target named is T3, human Cereblon WT GST-tagged protein (Homo sapiens, UniProt Q96SW2).
T3 construct: purchased CISBIO 64BDCRBNPEH
T3 sequence (Q96SW2 whole entry): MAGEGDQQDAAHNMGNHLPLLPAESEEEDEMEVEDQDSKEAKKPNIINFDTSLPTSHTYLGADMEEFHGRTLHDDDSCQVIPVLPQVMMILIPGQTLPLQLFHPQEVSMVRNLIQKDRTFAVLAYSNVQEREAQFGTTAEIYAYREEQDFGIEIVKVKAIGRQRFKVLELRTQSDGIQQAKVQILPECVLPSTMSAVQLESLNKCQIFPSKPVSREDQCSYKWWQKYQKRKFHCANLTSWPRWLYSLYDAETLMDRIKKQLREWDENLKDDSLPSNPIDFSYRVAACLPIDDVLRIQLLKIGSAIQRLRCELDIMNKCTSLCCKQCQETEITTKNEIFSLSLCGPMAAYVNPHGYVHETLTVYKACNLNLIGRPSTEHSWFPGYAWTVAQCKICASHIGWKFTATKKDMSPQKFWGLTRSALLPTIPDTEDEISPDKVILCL
Put plainly: CRBN binding, HTRF (CEREBLON BINDING kit). Particulars: Table II-2, CRBN binding screening, HTRF; for inhibition at 0.5 µM: read-out: Inhibition rate (%) at 0.5µM; for inhibition at 2 µM: read-out: Inhibition rate (%) at 2 µM. In short, it runs like this:
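After 3 h at room temperature, emission at 665 and 620 nm was measured in a homogeneous time-resolved fluorescence format. Compounds competed with a Thalidomide-Re probe for GST-tagged wild-type human CRBN, which was labelled with a Eu anti-GST antibody.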
On the technique in general: TR-FRET usually uses a lanthanide donor and a delayed reading to cut background.

For another assay, the system named is H1975. Nature of the assay: CCK-8 proliferation, NCI-H1975 (H1975). Particulars: Homo sapiens, read-out: Inhibitory activity (IC50) on tumor cell proliferation, H1975. The class given is cell-based, Human. In short, it runs like this: as §3
In a further assay the test system is MCF7. Nature of the assay: CCK-8 proliferation, MCF7 (MCF-7). The conditions noted are these: Homo sapiens, MCF7; CCK-8; read-out: Inhibitory activity (IC50) on tumor cell proliferation, MCF7. It is filed as cell-based. In short, it runs like this:
as §3

A further assay relates to SR. Nature of the assay: CCK-8 proliferation, SR. It is filed as cell-based, Human. Particulars: Homo sapiens, SR; CCK-8; 72 hours; read-out: Inhibitory activity (IC50) on tumor cell proliferation, SR. The procedure, abridged: as §3
Another assay relates to Jurkat. Put plainly: CCK-8 proliferation, Jurkat. The class given is cell-based, Human. Particulars: Homo sapiens, Jurkat; CCK-8; 96 hours; read-out: Inhibitory activity (IC50) on tumor cell proliferation, Jurkat. In short, it runs like this: as §3
The next assay deals with SW620. Put plainly: CCK-8 proliferation, SW620. The class given is cell-based. The conditions noted are these: Homo sapiens, SW-620; CCK-8; 96 hours; read-out: Inhibitory activity (IC50) on tumor cell proliferation, SW620. The procedure, abridged: as §3
A further assay relates to PC-9. Nature of the assay: CCK-8 proliferation, PC-9. The class given is cell-based, Human. The conditions noted are these: Homo sapiens, PC-9; CCK-8; 96 hours; read-out: Inhibitory activity (IC50) on tumor cell proliferation, PC-9. The procedure, abridged: as §3
The test system of another assay is H2228. Put plainly: CCK-8 proliferation, NCI-H2228 (H2228). The class given is cell-based. The conditions noted are these: Homo sapiens, NCI-H2228; CCK-8; 96 hours; read-out: Inhibitory activity (IC50) on tumor cell proliferation, H2228. The procedure, abridged: as §3
A further assay deals with MV-4-11. Nature of the assay: CCK-8 proliferation, MV-4-11. The class given is cell-based, Human. The conditions noted are these: Homo sapiens, MV4-11; CCK-8; 72 or 96 hours; read-out: Inhibitory activity (IC50) on tumor cell proliferation, MV-4-11. The procedure, abridged:
as §3

In a further assay the test system is 22RV1. Put plainly: CCK-8 proliferation, 22RV1. The class given is cell-based. Particulars: Homo sapiens, 96 hours, read-out: Inhibitory activity (IC50) on tumor cell proliferation, 22RV1. As to the method: as §1, §2

On to `Cc1nc2c(F)cc(-c3nc(Nc4ccc(N5CCC(N6CCN(Cc7ccc(C8CCC(=O)NC8=O)cc7)CC6)CC5)cn4)ncc3F)cc2n1C(C)C` (stereo not drawn) [GT-03905, 3-(4-((4-(1-(6-((5-fluoro-4-(4-fluoro-1-isopropyl-2-methyl-1H-benzo[d]imidazol-6-yl)pyrimidin-2-yl)amino)pyridin-3-yl)piperidin-4-yl)piperazin-1-yl)methyl)phenyl)piperidine-2,6-dione], for which the IC50 was in the range of 0.05 to 0.1 µM in the assay with MM.1R; 0.05 to 0.1 µM in the assay with Kasumi-1; 0.1 to 0.5 µM in the assay on CCRF-CEM; 0.05 to 0.1 µM in the assay with MM.1S; 0.1 to 0.5 µM in the assay on H1975 (NCI-H1975, CCK-8, 96 hours). The “Degradation of substrate protein CDK6 (substrate protein remaining %)” value at CDK6 is “A (A is defined as 0% ≤ substrate protein remaining % ≤ 80%)”. In addition, the “Degradation of substrate protein CDK4 (substrate protein remaining %)” value at CDK4 is “A (A is defined as 0% ≤ substrate protein remaining % ≤ 80%)”. In addition, the inhibition at 0.5 µM in assay [1] fell in the range of 40 to 53%. Also, in assay [1], the inhibition at 2 µM was in the range of 53 to 60%.
Regarding `Cc1nc2c(F)cc(-c3nc(Nc4ccc(N5CCC(N6CCN(Cc7ccc(C8CCC(=O)NC8=O)c(F)c7)CC6)CC5)cn4)ncc3F)cc2n1C(C)C` (stereo not drawn) [GT-03906, 3-(2-fluoro-4-((4-(1-(6-((5-fluoro-4-(4-fluoro-1-isopropyl-2-methyl-1H-benzo[d]imidazol-6-yl)pyrimidin-2-yl)amino)pyridin-3-yl)piperidin-4-yl)piperazin-1-yl)methyl)phenyl)piperidine-2,6-dione], the IC50 was in the range of 0.05 to 0.1 µM in the assay with MM.1R; 0.05 to 0.1 µM with Kasumi-1; 0.1 to 0.5 µM in the assay with CCRF-CEM; 0.1 to 0.5 µM in the assay on MCF7; 0.05 to 0.1 µM with SR; 0.01 to 0.05 µM with MM.1S. In addition, the IC50 in the assay on H1975 (NCI-H1975, CCK-8, 96 hours) was in the range of 0.1 to 0.5 µM. Also, the “Degradation of substrate protein CDK6 (substrate protein remaining %)” value at CDK6 is reported as “A (A is defined as 0% ≤ substrate protein remaining % ≤ 80%)”. In addition, the “Degradation of substrate protein CDK4 (substrate protein remaining %)” value on CDK4 is given as “A (A is defined as 0% ≤ substrate protein remaining % ≤ 80%)”.
Regarding `COc1cc(C(=O)NC2CCN(Cc3cccc(N4CCC(=O)NC4=O)c3)CC2)c(F)cc1Nc1ncc(C(F)(F)F)c(Oc2cccc3c2C(=O)N(C)C3)n1` [GT-04257, N-(1-(3-(2,4-dioxotetrahydropyrimidin-1(2H)-yl)benzyl)piperidin-4-yl)-2-fluoro-5-methoxy-4-((4-((2-methyl-3-oxoisoindolin-4-yl)oxy)-5-(trifluoromethyl)pyrimidin-2-yl)amino)benzamide], the IC50 lay in the range of 0.1 to 0.5 µM in the assay with MM.1R, 0.1 to 0.5 µM in the assay on CCRF-CEM, 0.1 to 0.5 µM in the assay on Jurkat and 0.5 to 1 µM in the assay on SW620. Further, in assay [1], the inhibition at 0.5 µM lay within 60 to 80%. In addition, the inhibition at 2 µM in assay [1] lay within 80 to 100%.
Turning to `CN1CCN([C@@H]2CCCN(c3cnc(C(N)=O)c(Nc4ccc(C5CCN(Cc6ccc(N7CCC(=O)NC7=O)cc6F)CC5)cc4)n3)C2)C1=O` [GT-04803, (R)-3-((4-(1-(4-(2,4-dioxotetrahydropyrimidin-1(2H)-yl)-2-fluorobenzyl)piperidin-4-yl)phenyl)amino)-5-(3-(3-methyl-2-oxoimidazolidin-1-yl)piperidin-1-yl)pyrazine-2-carboxamide], the IC50 lay in the range of 0.1 to 0.5 µM in the assay on MM.1R; 0.1 to 0.5 µM in the assay with PC-9; 0.1 to 0.5 µM with SW620; 0.1 to 0.5 µM in the assay on H2228; 0.5 to 1 µM in the assay on H1975 (NCI-H1975, CCK-8, 96 hours).
In the case of `Cc1nc2c(F)cc(-c3nc(Nc4ccc(N5CCC(N6CCN(Cc7ccc(N8CCC(=O)NC8=O)nc7)CC6)CC5)cn4)ncc3F)cc2n1C(C)C` [GT-06742, 1-(5-((4-(1-(6-((5-fluoro-4-(4-fluoro-1-isopropyl-2-methyl-1H-benzo[d]imidazol-6-yl)pyrimidin-2-yl)amino)pyridin-3-yl)piperidin-4-yl)piperazin-1-yl)methyl)pyridin-2-yl)dihydropyrimidine-2,4(1H,3H)-dione], the IC50 lay in the range of 0.1 to 0.5 µM in the assay with Kasumi-1; 0.05 to 0.1 µM with CCRF-CEM; 0.01 to 0.05 µM in the assay with MCF7; 0.01 to 0.05 µM with SR; 0.01 to 0.05 µM with MV-4-11; 0.1 to 0.5 µM in the assay with MM.1S. Moreover, the IC50 with H1975 (NCI-H1975, CCK-8, 96 hours) fell in the range of 0.1 to 0.5 µM; in the assay on 22RV1 it was 0.01 to 0.05 µM.
Take `Cc1nc2c(F)cc(-c3nc(Nc4ccc(N5CCC(N6CCN(Cc7cc(N8CCC(=O)NC8=O)ncc7F)CC6)CC5)cn4)ncc3F)cc2n1C(C)C` [GT-07486, 1-(5-fluoro-4-((4-(1-(6-((5-fluoro-4-(4-fluoro-1-isopropyl-2-methyl-1H-benzo[d]imidazol-6-yl)pyrimidin-2-yl)amino)pyridin-3-yl)piperidin-4-yl)piperazin-1-yl)methyl)pyridin-2-yl)dihydropyrimidine-2,4(1H,3H)-dione]: the IC50 lay in the range of 0.1 to 0.5 µM in the assay on CCRF-CEM; 0.05 to 0.1 µM in the assay with MCF7; 0.05 to 0.1 µM in the assay with MM.1S; 0.05 to 0.1 µM in the assay with H1975 (NCI-H1975, CCK-8, 96 hours); 0.01 to 0.05 µM in the assay with 22RV1.
Consider `Cc1nc2c(F)cc(-c3nc(Nc4ccc(N5CCC(N6CCN(Cc7ccnc(N8CCC(=O)NC8=O)c7)CC6)CC5)cn4)ncc3F)cc2n1C(C)C` [GT-07487, 1-(4-((4-(1-(6-((5-fluoro-4-(4-fluoro-1-isopropyl-2-methyl-1H-benzo[d]imidazol-6-yl)pyrimidin-2-yl)amino)pyridin-3-yl)piperidin-4-yl)piperazin-1-yl)methyl)pyridin-2-yl)dihydropyrimidine-2,4(1H,3H)-dione], for which the IC50 in the assay with CCRF-CEM is 0.05 to 0.1 µM; with MCF7, 0.01 to 0.05 µM; with MM.1S, 0.01 to 0.05 µM; with H1975 (NCI-H1975, CCK-8, 96 hours) it was 0.05 to 0.1 µM; in the assay with 22RV1, 0.01 to 0.05 µM. Moreover, the inhibition at 0.5 µM in [1] fell in the range of 30 to 40%. Further, the inhibition at 2 µM in [1] fell in the range of 53 to 60%.
For the compound `CCN1CCN(Cc2ccc(Nc3ncc(F)c(-c4cc(F)c5nc(C)n(C(C)C)c5c4)n3)nc2)CC1` [abemaciclib, reference compound], the IC50 in the assay with Kasumi-1 is 0.5 to 1 µM; in the assay with CCRF-CEM, 1 to 5 µM; in the assay with MCF7, 1 to 5 µM; in the assay on SR it was 0.5 to 1 µM; in the assay with MV-4-11, 0.05 to 0.1 µM; in the assay with MM.1S it was 1 to 5 µM. Besides, the IC50 was in the range of 1 to 5 µM in the assay on H1975 (NCI-H1975, 96 h) and 0.01 to 0.05 µM in the assay on 22RV1.

Broadly, the inhibition is the drop in the measured response relative to a control, in per cent.
